From patent US20260015358A1, “BICYCLIC DERIVATIVES, COMPOSITIONS AND USES THEREOF” (Danatlas Pharmaceuticals Co., Ltd., priority 2023, published 2026)

What was measured:
[1] = molecular target: T1, WRN [UniPro: Q14191 (WRN_HUMAN), N500-C946] (Homo sapiens (Human), UniProt Q14191); experiment: WRN unwinding assay (FORKF DNA, fluorescence); format: biochemical; details: Table 14
[2] = molecular target: T1, WRN [UniPro: Q14191 (WRN_HUMAN), N500-C946]; experiment: WRN ATPase assay (ADP-Glo); format: biochemical; details: WRN enzymatic activity assay

T1 sequence (Q14191 500-946): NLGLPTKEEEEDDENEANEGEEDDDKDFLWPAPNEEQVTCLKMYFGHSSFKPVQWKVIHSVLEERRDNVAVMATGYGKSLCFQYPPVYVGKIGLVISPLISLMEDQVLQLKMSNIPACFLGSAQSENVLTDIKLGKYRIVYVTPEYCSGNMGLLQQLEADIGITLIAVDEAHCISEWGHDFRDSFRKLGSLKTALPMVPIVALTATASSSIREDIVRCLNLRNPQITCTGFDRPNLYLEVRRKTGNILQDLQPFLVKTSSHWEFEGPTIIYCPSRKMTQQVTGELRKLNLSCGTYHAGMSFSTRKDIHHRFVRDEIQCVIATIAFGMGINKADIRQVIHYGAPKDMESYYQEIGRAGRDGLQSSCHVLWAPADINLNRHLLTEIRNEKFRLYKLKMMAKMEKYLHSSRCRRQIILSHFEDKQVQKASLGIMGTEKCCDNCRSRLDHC

**Q.** What does the source list for CCc1c(N2CCN(C(=O)CNC(=O)c3ncccc3F)CC2)c(=O)n2nc(C3=CCOCC3)nc2n1CC(=O)Nc1ccc(C(F)(F)F)cc1Cl [Example 133, N-(2-(4-(4-(2-((2-Chloro-4-(trifluoromethyl)phenyl)amino)-2-oxoethyl)-2-(3,6-dihydro-2H-pyran-4-yl)-5-ethyl-7-oxo-4,7-dihydro-[1,2,4]triazolo[1,5-a]pyrimidin-6-yl)piperazin-1-yl)-2-oxoethyl)-3-fluoropicolinamide]?
**A.** IC50 [1]: < 100 nM; IC50 [2]: < 100 nM

**Q.** With CCc1c(N2CCN(C(=O)CNC)CC2)c(=O)n2nc(C3=CCOCC3)nc2n1CC(=O)Nc1ccc(C(F)(F)F)cc1Cl [Example 134, N-(2-Chloro-4-(trifluoromethyl)phenyl)-2-(2-(3,6-dihydro-2H-pyran-4-yl)-5-ethyl-6-(4-(methylglycyl)piperazin-1-yl)-7-oxo-[1,2,4]triazolo[1,5-a]pyrimidin-4(7H)-yl)acetamide] as the compound, how does the IC50 [1] read?
**A.** < 100 nM

**Q.** What about the IC50 [2] of the same compound?
**A.** < 100 nM

**Q.** With CCc1c(N2CCN(C(=O)C(C)NC(=O)c3ccccc3)CC2)c(=O)n2nc(C3=CCOCC3)nc2n1CC(=O)Nc1ccc(C(F)(F)F)cc1Cl (centres unmarked) [Example 136, N-(1-(4-(4-(2-((2-Chloro-4-(trifluoromethyl)phenyl)amino)-2-oxoethyl)-2-(3,6-dihydro-2H-pyran-4-yl)-5-ethyl-7-oxo-4,7-dihydro-[1,2,4]triazolo[1,5-a]pyrimidin-6-yl)piperazin-1-yl)-1-oxopropan-2-yl)benzamide] as the compound, how does the IC50 [1] read?
**A.** 100 to 1000 nM

**Q.** And the IC50 [2]?
**A.** < 100 nM

**Q.** [2H]C([2H])(NC(=O)c1ccccc1F)C(=O)N1CCN(c2c(CC)n(CC(=O)Nc3ccc(C(F)(F)F)cc3Cl)c3nc(N4CCOCC4)nn3c2=O)CC1 [Example 138, N-(2-(4-(4-(2-((2-Chloro-4-(trifluoromethyl)phenyl)amino)-2-oxoethyl)-5-ethyl-2-morpholino-7-oxo-4,7-dihydro-[1,2,4]triazolo[1,5-a]pyrimidin-6-yl)piperazin-1-yl)-2-oxoethyl-1,1-d2)-2-fluorobenzamide] was tested. Which IC50 [1] did it give?
**A.** < 100 nM

**Q.** And the IC50 [2]?
**A.** < 100 nM

**Q.** For CCc1c(N2CCC(NC(=O)CNC(=O)c3ccccc3)CC2)c(=O)n2nc(C3=CCOCC3)nc2n1CC(=O)Nc1ccc(C(F)(F)F)cc1Cl [Example 141, N-(2-((1-(4-(2-((2-Chloro-4-(trifluoromethyl)phenyl)amino)-2-oxoethyl)-2-(3,6-dihydro-2H-pyran-4-yl)-5-ethyl-7-oxo-4,7-dihydro-[1,2,4]triazolo[1,5-a]pyrimidin-6-yl)piperidin-4-yl)amino)-2-oxoethyl)benzamide], which IC50 [1] is on record?
**A.** > 1000 nM

**Q.** What about the IC50 [2] of the same compound?
**A.** > 1000 nM

**Q.** What does the source list for CCc1c(N2CCN(C(=O)CNC(=O)c3ccccc3)CC2)c(=O)n2nc(C3=CCOCC3)nc2n1CC(=O)N(C)c1ccc(C(F)(F)F)cc1Cl [Example 143, N-(2-(4-(4-(2-((2-Chloro-4-(trifluoromethyl)phenyl)(methyl)amino)-2-oxoethyl)-2-(3,6-dihydro-2H-pyran-4-yl)-5-ethyl-7-oxo-4,7-dihydro-[1,2,4]triazolo[1,5-a]pyrimidin-6-yl)piperazin-1-yl)-2-oxoethyl)benzamide]?
**A.** IC50 [1]: > 1000 nM; IC50 [2]: 100 to 1000 nM

**Q.** With CCc1c(N2CCN(C(=O)CNC(=O)c3ccccc3F)CC2)c(=O)n2nc(C3=CCOCC3)nc2n1CC(=O)Nc1cc(F)c(C(F)(F)F)cc1C [Example 144, N-(2-(4-(2-(3,6-Dihydro-2H-pyran-4-yl)-5-ethyl-4-(2-((5-fluoro-2-methyl-4-(trifluoromethyl)phenyl)amino)-2-oxoethyl)-7-oxo-4,7-dihydro-[1,2,4]triazolo[1,5-a]pyrimidin-6-yl)piperazin-1-yl)-2-oxoethyl)-2-fluorobenzamide] as the compound, how does the IC50 [1] read?
**A.** < 100 nM

**Q.** What about the IC50 [2] of the same compound?
**A.** 100 to 1000 nM

**Q.** Which IC50 [1] does the source give for CCc1c(N2CCN(C(=O)c3cnn4cccc4c3O)CC2)c(=O)n2nc(C3=CCOCC3)nc2n1CC(=O)Nc1sc(C)cc1Br [Example 146, N-(3-Bromo-5-methylthiophen-2-yl)-2-(2-(3,6-dihydro-2H-pyran-4-yl)-5-ethyl-6-(4-(4-hydroxypyrrolo[1,2-b]pyridazine-3-carbonyl)piperazin-1-yl)-7-oxo-[1,2,4]triazolo[1,5-a]pyrimidin-4(7H)-yl)acetamide] here?
**A.** 100 to 1000 nM

**Q.** And the IC50 [2]?
**A.** 100 to 1000 nM

**Q.** How did the IC50 [1] turn out when CCc1c(N2CCN(C(=O)CNC(=O)c3ccccc3F)CC2)c(=O)n2nc(C3=CCOCC3)nc2n1CC(=O)Nc1ccc(C(F)(F)F)cc1C [Example 147, N-(2-(4-(2-(3,6-Dihydro-2H-pyran-4-yl)-5-ethyl-4-(2-((2-methyl-4-(trifluoromethyl)phenyl)amino)-2-oxoethyl)-7-oxo-4,7-dihydro-[1,2,4]triazolo[1,5-a]pyrimidin-6-yl)piperazin-1-yl)-2-oxoethyl)-2-fluorobenzamide] was run?
**A.** < 100 nM

**Q.** What about the IC50 [2] of the same compound?
**A.** < 100 nM

**Q.** Which results are given for CCc1c(N2CCN(C(=O)CNC(=O)c3ccccc3F)CC2)c(=O)n2nc(C3=CCOCC3)nc2n1CC(=O)Nc1ccc(C(F)(F)F)cc1 [Example 148, N-(2-(4-(2-(3,6-Dihydro-2H-pyran-4-yl)-5-ethyl-7-oxo-4-(2-oxo-2-((4-(trifluoromethyl)phenyl)amino)ethyl)-4,7-dihydro-[1,2,4]triazolo[1,5-a]pyrimidin-6-yl)piperazin-1-yl)-2-oxoethyl)-2-fluorobenzamide]?
**A.** IC50 [1]: < 100 nM; IC50 [2]: < 100 nM

**Q.** CCc1c(N2CCN(C(=O)CNC(=O)c3ccccc3F)CC2)c(=O)n2nc(C3=CCOCC3)nc2n1CC(=O)Nc1ccc(C(F)(F)F)cc1F [Example 149, N-(2-(4-(2-(3,6-Dihydro-2H-pyran-4-yl)-5-ethyl-4-(2-((2-fluoro-4-(trifluoromethyl)phenyl)amino)-2-oxoethyl)-7-oxo-4,7-dihydro-[1,2,4]triazolo[1,5-a]pyrimidin-6-yl)piperazin-1-yl)-2-oxoethyl)-2-fluorobenzamide] was tested. Which IC50 [1] did it give?
**A.** < 100 nM

**Q.** What about the IC50 [2] of the same compound?
**A.** < 100 nM

**Q.** For CCc1c(N2CCN(C(=O)CNC(=O)c3ccccc3F)CC2)c(=O)n2nc(C3=CCOCC3)nc2n1CC(=O)Nc1ccc(F)cc1F [Example 150, N-(2-(4-(4-(2-((2,4-Difluorophenyl)amino)-2-oxoethyl)-2-(3,6-dihydro-2H-pyran-4-yl)-5-ethyl-7-oxo-4,7-dihydro-[1,2,4]triazolo[1,5-a]pyrimidin-6-yl)piperazin-1-yl)-2-oxoethyl)-2-fluorobenzamide], which IC50 [1] is on record?
**A.** < 100 nM

**Q.** What about the IC50 [2] of the same compound?
**A.** < 100 nM

**Q.** How did the IC50 [1] turn out when CCc1c(N2CCN(C(=O)CNC(=O)c3ccccc3F)CC2)c(=O)n2nc(C3=CCOCC3)nc2n1CC(=O)Nc1sc(C)cc1Br [Example 152, N-(2-(4-(4-(2-((3-bromo-5-methylthiophen-2-yl)amino)-2-oxoethyl)-2-(3,6-dihydro-2H-pyran-4-yl)-5-ethyl-7-oxo-4,7-dihydro-[1,2,4]triazolo[1,5-a]pyrimidin-6-yl)piperazin-1-yl)-2-oxoethyl)-2-fluorobenzamide] was run?
**A.** < 100 nM

**Q.** What about the IC50 [2] of the same compound?
**A.** 100 to 1000 nM

**Q.** CCc1c(N2CCN(C(=O)CNC(=O)c3ccccc3F)CC2)c(=O)n2nc(C3=CCOCC3)nc2n1CC(=O)Nc1ccc(C)s1 [Example 153, N-(2-(4-(2-(3,6-Dihydro-2H-pyran-4-yl)-5-ethyl-4-(2-((5-methylthiophen-2-yl)amino)-2-oxoethyl)-7-oxo-4,7-dihydro-[1,2,4]triazolo[1,5-a]pyrimidin-6-yl)piperazin-1-yl)-2-oxoethyl)-2-fluorobenzamide] was tested. Which IC50 [1] did it give?
**A.** < 100 nM

**Q.** And the IC50 [2]?
**A.** 100 to 1000 nM

**Q.** Which results are given for CCc1c(N2CCN(C(=O)CNC(=O)c3ccccc3F)CC2)c(=O)n2nc(C3=CCOCC3)nc2n1CC(=O)Nc1cc(C)cs1 [Example 154, N-(2-(4-(2-(3,6-Dihydro-2H-pyran-4-yl)-5-ethyl-4-(2-((4-methylthiophen-2-yl)amino)-2-oxoethyl)-7-oxo-4,7-dihydro-[1,2,4]triazolo[1,5-a]pyrimidin-6-yl)piperazin-1-yl)-2-oxoethyl)-2-fluorobenzamide]?
**A.** IC50 [1]: < 100 nM; IC50 [2]: < 100 nM

**Q.** Which IC50 [1] does the source give for CCc1c(N2CCN(C(=O)CNC(=O)c3ccccc3F)CC2)c(=O)n2nc(C3=CCOCC3)nc2n1CC(=O)Nc1cnc(C(F)(F)F)s1 [Example 157, N-(2-(4-(2-(3,6-Dihydro-2H-pyran-4-yl)-5-ethyl-7-oxo-4-(2-oxo-2-((2-(trifluoromethyl)thiazol-5-yl)amino)ethyl)-4,7-dihydro-[1,2,4]triazolo[1,5-a]pyrimidin-6-yl)piperazin-1-yl)-2-oxoethyl)-2-fluorobenzamide] here?
**A.** < 100 nM

**Q.** And the IC50 [2]?
**A.** < 100 nM

**Q.** What does the source list for CCc1c(N2CCN(C(=O)CNC(=O)c3ccccc3F)CC2)c(=O)n2nc(C3=CCOCC3)nc2n1CC(=O)Nc1cc(Br)cs1 [Example 161, N-(2-(4-(4-(2-((4-Bromothiophen-2-yl)amino)-2-oxoethyl)-2-(3,6-dihydro-2H-pyran-4-yl)-5-ethyl-7-oxo-4,7-dihydro-[1,2,4]triazolo[1,5-a]pyrimidin-6-yl)piperazin-1-yl)-2-oxoethyl)-2-fluorobenzamide]?
**A.** IC50 [1]: < 100 nM; IC50 [2]: < 100 nM

**Q.** Which results are given for CCc1c(N2CCN(C(=O)CNC(=O)c3ccccc3F)CC2)c(=O)n2nc(C3=CCOCC3)nc2n1CC(=O)Nc1cc(C(F)(F)F)n(C)n1 [Example 162, N-(2-(4-(2-(3,6-Dihydro-2H-pyran-4-yl)-5-ethyl-4-(2-((1-methyl-5-(trifluoromethyl)-1H-pyrazol-3-yl)amino)-2-oxoethyl)-7-oxo-4,7-dihydro-[1,2,4]triazolo[1,5-a]pyrimidin-6-yl)piperazin-1-yl)-2-oxoethyl)-2-fluorobenzamide]?
**A.** IC50 [1]: 100 to 1000 nM; IC50 [2]: 100 to 1000 nM

**Q.** Which results are given for CCc1c(N2CCN(C(=O)CNC(=O)c3ccccc3F)CC2)c(=O)n2nc(C3=CCOCC3)nc2n1CC(=O)Nc1ccc(C(F)(F)F)nc1Cl [Example 163, N-(2-(4-(4-(2-((2-Chloro-6-(trifluoromethyl)pyridin-3-yl)amino)-2-oxoethyl)-2-(3,6-dihydro-2H-pyran-4-yl)-5-ethyl-7-oxo-4,7-dihydro-[1,2,4]triazolo[1,5-a]pyrimidin-6-yl)piperazin-1-yl)-2-oxoethyl)-2-fluorobenzamide]?
**A.** IC50 [1]: < 100 nM; IC50 [2]: < 100 nM
